Measurements published in patent publication US5427766A, “Radiolabeled steroids for use in radiochemical-guided surgery” (priority 1993, dated 1995).

What was measured:
Design in all cases: species or system athymic female NCR-Nu Mice
[1] = tested on: MCF-7(ER+) breast tumor xenografts; assay: In vivo biolocalization with gamma detecting probe, tumor/background ratio, MCF-7 (ER+) tumor; conditions: mouse, in vivo
Experimental: (§1) In vivo biolocalization of 11β-ethyl-17α-(Z)-[^125 I](iodovinyl)estra-3,17β-diol (5) and a control compound 16α-[^125 I](iodovinyl)-3,17β-estradiol was determined in athymic female NCR-Nu Mice bearing subcutaneous MCF-7(ER+) breast tumor xenografts and MDA-MB-231 (ER-) breast tumor xenografts. The mice were at least 5 weeks old prior to injection into the right-hand flank with […] of MCF-7 breast carcinoma cells ([…]). One day prior to this procedure, the mice were implanted subcutaneously with a 1.7 mg estradiol pellet in the scapular region. Four to six weeks post-injection of the MCF-7 cells the estradiol pellet was removed and the mice inoculated in the left hind flank with 75 μL NDA-MB-231 breast tumor cells ([…]). Seven to ten days prior to injection of the test compounds, an estradiol pellet was again implanted in the scapular region. One to two days prior to injection of the test compounds, the estradiol pellet was removed, and 5 mice arbitrarily assigned to each test group.
(§2) The mice were each injected via tail vein with between 3 ([…]) and […] ([…]) 125 iodine in approximately […] of phosphate-buffered saline. At various time intervals after injection of the test compounds, each group of mice was anesthetized with methoxyflurane in order to measure the radioactivity over the ER+ and ER- tumors and the front leg for use as a background and the thoraxic area which served as a blood pool control using a gamma detecting probe (RIGS ^TM Model 1001 control unit, Neoprobe Corporation, Columbus, Ohio). Three 20 to 60 second counts were recorded at each area measured at each time point.
(§3) ^c Tu/Bkg = Mean(1-5) of (mean tumor countsn - mean foreleg
(§4) background countsn)/mean foreleg background

[2] = tested on: MDA-MB-231 (ER-) breast tumor xenografts; assay: In vivo biolocalization with gamma detecting probe, tumor/background ratio, MDA-MB-231 (ER-) tumor; conditions: mouse, in vivo
Experimental: as §1, §2, §3, §4

[3] = tested on: MCF-7 tumors located intraperitoneally; assay: In vivo localization (biodistribution) in athymic female nude mice bearing intraperitoneal MCF-7 tumors; conditions: for Percent Injected Dose/Gram, muscle: mouse, in vivo, ip
Experimental: (§5) In vivo localization of 11β-ethyl-17α-(Z)-[^125 I](iodovinyl)estra-3,17β-diol (5) and a control compound 16α-[^125 I]iodovinyl-3,17β-estradiol (commercially available from DuPont New England Nuclear, MA) was determined in athymic female NCR-Nu Mice (purchased from Simonsen Laboratories, Gilroy, Calif.) bearing subcutaneous MCF-7(ER+) breast tumor xenografts. Prior to injection of the compounds, the mice were each implanted with fragments of MCF-7 breast tumor (approximately 2 cubic millimeters) in the subcutis of the left flank. At approximately the same time, a 1.7 mg estradiol pellet (Innovative Research of America, Toledo, Ohio) was implanted in the scapular region. The tumors were allowed to grow until they reached between 50 and 200 mg by visual inspection (approximately four to five weeks) prior to injection of the test compounds. One day prior to injection of the test compounds, the estradiol pellet was removed.
(§6) The mice were each injected via tail vein with between 3 (1.1×10^5 Bq) and 6 μCi ([…]) ^125 I in approximately 50 μL of phosphate buffered saline. The mice were sacrificed at various time intervals. After exsanguination, the selected organ/tissue were excised, weighed and radioactivity measured in a gamma counter. The counts per minute (cpm) of 125I in each tissue was determined and expressed as cpm per gram of tissue per injected dose multiplied by 100 (percent injected dose/gram).
The procedure of Example 3 was followed except each mouse was inoculated intraperitoneally with MCF-7 breast carcinoma cell line (7.5×10^6 cell/50 μL) rather than implanted subcutaneously with MCF-7 breast tumor. One day prior to this procedure, a 1.7 mg estradiol pellet was implanted subcutaneously in the scapular region. The tumor cells were allowed to form solid tumor nodules for 4 to 6 weeks prior to injection of the test compounds.

[4] = tested on: MCF-7(ER+) breast tumor xenografts; assay: In vivo localization (biodistribution) in athymic female nude mice bearing subcutaneous MCF-7 tumor xenografts
Experimental: as §5, §6

## CC[C@H]1C[C@@]2(C)[C@@H](CC[C@@]2(O)/C=C\[125I])[C@@H]2CCc3cc(O)ccc3[C@@H]12 [Compound 5, 11β-ethyl-17α-(Z)-[^125 I](iodovinyl)estra-3,17β-diol]
[1]
  Tumor/Background Ratio (Tu/Bkg): 4.70 ± 1.85
  tumor to background ratios (in words): good tumor to background ratios
  tumor to background ratios / localization at the tumor site (in words): maintained a high tumor to background ratios
[1]; 120 min
  Tumor/Background Ratio (Tu/Bkg): 4.74 ± 2.04
[1]; 360 min
  Tumor/Background Ratio (Tu/Bkg): 7.32 ± 0.60
[1]; 1440 min
  Tumor/Background Ratio (Tu/Bkg): 3.53 ± 1.30
[1]; 2880 min
  Tumor/Background Ratio (Tu/Bkg): 1.79 ± 1.23
[2]
  Tumor/Background Ratio (Tu/Bkg): 2.44 ± 1.83
[2]; 120 min
  Tumor/Background Ratio (Tu/Bkg): 4.34 ± 1.37
[2]; 360 min
  Tumor/Background Ratio (Tu/Bkg): 4.44 ± 2.62
[2]; 1440 min
  Tumor/Background Ratio (Tu/Bkg): 0.87 ± 0.54
[2]; 2880 min
  Tumor/Background Ratio (Tu/Bkg): 0.03 ± 0.34
[3]; 48 hours post-injection, uteri and tumors, intraperitoneal MCF-7
  radioactivity in the uteri and tumors: still contain a significant amount of radioactivity
[3]; Fat, 48 hours, tail vein, intraperitoneal MCF-7, mean, n = 5
  Percent Injected Dose/Gram, fat: 0.00 Percent Injected Dose/Gram
[3]; intraperitoneal MCF-7, conclusion in words
  binding affinity in vivo with retention of the targeted-site: high binding affinity in vivo with retention of the targeted-site
[3]; 1440 min
  Percent Injected Dose/Gram, muscle: 0.00 Percent Injected Dose/Gram
[3]; 2880 min
  Percent Injected Dose/Gram, muscle: 0.00 Percent Injected Dose/Gram
[4]; 48 hours post-injection, uteri and tumors, subcutaneous MCF-7
  radioactivity in the uteri and tumors: still contain a significant amount of radioactivity
[4]; Fat, 48 hours, tail vein, subcutaneous MCF-7, mean, n = 5
  Percent Injected Dose/Gram, fat: 0.00 Percent Injected Dose/Gram
[4]; 24 hours, tail vein, subcutaneous MCF-7, mean, n = 5
  Percent Injected Dose/Gram, muscle: 0.00 Percent Injected Dose/Gram
[4]; 48 hours, tail vein, subcutaneous MCF-7, mean, n = 5
  Percent Injected Dose/Gram, muscle: 0.00 Percent Injected Dose/Gram
[4]; subcutaneous MCF-7, conclusion in words
  binding affinity in vivo with retention of the targeted-site: high binding affinity in vivo with retention of the targeted-site
